From ChEMBL document CHEMBL6134849, “A Water-Soluble Aggregation-Induced Emission Photosensitizer with Intrinsic Antibacterial Activity as an Antiplanktonic and Antibiofilm Therapeutic Agent” (J Med Chem, 2025)
Calls of active or inactive are those of the source. The rule behind the calls is not given here.

Assays:
[1] = Induction of type-I ROS generation in PBS assessed as increase in nonspecific ROS by measuring increase in DHR123 fluorescence intensity at 10 uM irradiated with 660 nm 60 mW/cm2 light for 15 mins by DHR123 probe based plate reader analysis; type: functional
[2] = Induction of type-II ROS generation in PBS assessed as increase in nonspecific ROS by measuring increase in DHR123 fluorescence intensity at 10 uM irradiated with 660 nm 60 mW/cm2 light for 15 mins by DHR123 probe based plate reader analysis; type: functional
[3] = Induction of type-I ROS generation in PBS assessed as increase in hydroxyl radical by measuring increase in HPF fluorescence intensity at 10 uM irradiated with 660 nm 60 mW/cm2 light for 15 mins by HPF probe based plate reader analysis; type: functional
[4] = Induction of […] ROS generation in PBS assessed as increase in hydroxyl radical by measuring increase in HPF fluorescence intensity at 10 uM irradiated with 660 nm 60 mW/cm2 light for 15 mins by HPF probe based plate reader analysis; type: functional
[5] = Induction of type-I ROS generation in PBS assessed as increase in singlet oxygen by measuring increase in SOSG fluorescence intensity at 10 uM irradiated with 660 nm 60 mW/cm2 light for 15 mins by SOSG probe based plate reader analysis; type: functional
[6] = Induction of type-II ROS generation in PBS assessed as increase in singlet oxygen by measuring increase in SOSG fluorescence intensity at 10 uM irradiated with 660 nm 60 mW/cm2 light for 15 mins by SOSG probe based plate reader analysis; type: functional
[7] = test system: Pseudomonas aeruginosa; assay: Antibacterial activity against Pseudomonas aeruginosa ATCC 27853 in presence of Muller-Hinton medium by broth microdilution method; type: functional
[8] = test system: Staphylococcus aureus; assay: Antibacterial activity against Staphylococcus aureus at 6.25 uM measured within 2 hrs in absence of light irradiation by time-kill kinetics assay relative to control; type: functional
[9] = test system: Staphylococcus aureus; assay: Antibiofilm activity against Staphylococcus aureus assessed as mature biofilm eradication incubated for 24 hrs under dark condition in absence of light irradiation by crystal violet staining based analysis; type: functional, organism-based
[10] = test system: Cell membrane; assay: Induction of cell membrane depolarization in Staphylococcus aureus assessed as increase in fluorescence intensity in absence of light irradiation by Disc3(5) dye based fluorescence assay; type: subcellular
[11] = test system: Cell membrane; assay: Induction of cell membrane damage in Staphylococcus aureus at 12.5 to 25 uM incubated for 3 hrs under dark condition by scanning electron microscopic analysis; type: subcellular; conditions: dose 12.5-25 µM
[12] = target: T1, DNA gyrase (Staphylococcus aureus) (UniProt P0A0K8+P20831); assay: Inhibition of Staphylococcus aureus DNA gyrase supercoiling using relaxed pBR322 as substrate at 3.125 to 25 uM incubated for 30 mins in absence of light irradiation by gel based method; type: protein-complex assay; conditions: dose 3.125-25 µM
T1 sequence (P0A0K8 2-644 limits assumed): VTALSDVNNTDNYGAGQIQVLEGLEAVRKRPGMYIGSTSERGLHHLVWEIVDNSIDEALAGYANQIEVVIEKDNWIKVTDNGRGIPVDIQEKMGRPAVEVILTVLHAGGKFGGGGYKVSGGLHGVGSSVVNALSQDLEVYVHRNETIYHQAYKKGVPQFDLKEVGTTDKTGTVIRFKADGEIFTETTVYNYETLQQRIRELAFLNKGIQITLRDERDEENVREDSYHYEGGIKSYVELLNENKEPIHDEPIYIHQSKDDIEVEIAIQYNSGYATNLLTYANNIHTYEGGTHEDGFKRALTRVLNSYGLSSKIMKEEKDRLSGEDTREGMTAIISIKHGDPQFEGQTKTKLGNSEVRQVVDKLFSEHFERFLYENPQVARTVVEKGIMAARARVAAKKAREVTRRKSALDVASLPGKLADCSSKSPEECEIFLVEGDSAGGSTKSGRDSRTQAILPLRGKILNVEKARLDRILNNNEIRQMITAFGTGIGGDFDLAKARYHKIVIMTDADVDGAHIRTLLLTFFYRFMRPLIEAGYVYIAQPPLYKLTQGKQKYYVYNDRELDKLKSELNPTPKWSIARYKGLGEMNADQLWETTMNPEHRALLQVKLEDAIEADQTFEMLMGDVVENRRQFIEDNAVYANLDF
T1 sequence (P20831 whole entry partner): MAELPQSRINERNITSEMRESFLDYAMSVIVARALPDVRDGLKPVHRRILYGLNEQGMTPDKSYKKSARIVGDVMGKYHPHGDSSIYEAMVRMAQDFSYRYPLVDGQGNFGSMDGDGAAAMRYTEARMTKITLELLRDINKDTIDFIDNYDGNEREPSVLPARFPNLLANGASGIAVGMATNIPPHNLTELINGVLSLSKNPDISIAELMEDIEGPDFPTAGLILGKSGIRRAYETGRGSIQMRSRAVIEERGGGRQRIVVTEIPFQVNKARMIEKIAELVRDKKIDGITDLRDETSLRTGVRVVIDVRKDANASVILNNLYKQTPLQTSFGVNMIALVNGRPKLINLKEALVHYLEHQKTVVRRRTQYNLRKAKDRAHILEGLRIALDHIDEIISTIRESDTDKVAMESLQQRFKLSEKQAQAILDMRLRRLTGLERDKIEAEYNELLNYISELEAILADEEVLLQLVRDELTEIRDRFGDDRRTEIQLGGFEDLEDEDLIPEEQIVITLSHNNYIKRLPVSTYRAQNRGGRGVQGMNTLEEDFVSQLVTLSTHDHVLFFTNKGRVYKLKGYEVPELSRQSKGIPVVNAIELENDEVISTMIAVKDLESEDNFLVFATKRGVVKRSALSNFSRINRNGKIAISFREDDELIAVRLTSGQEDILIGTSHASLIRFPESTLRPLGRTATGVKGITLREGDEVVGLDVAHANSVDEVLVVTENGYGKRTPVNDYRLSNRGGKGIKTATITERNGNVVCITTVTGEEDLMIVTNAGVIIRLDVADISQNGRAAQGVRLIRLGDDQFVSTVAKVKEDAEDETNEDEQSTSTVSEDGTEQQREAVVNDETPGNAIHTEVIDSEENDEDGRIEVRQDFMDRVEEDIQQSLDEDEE

[13] = target: T1, DNA gyrase (Staphylococcus aureus); assay: Inhibition of Staphylococcus aureus DNA gyrase supercoiling assessed as decrease in supercoiled DNA band intensity using relaxed pBR322 as substrate at 25 uM incubated for 30 mins in absence of light irradiation by gel based method; type: protein-complex assay
[14] = test system: Staphylococcus aureus; assay: Downregulation of div1B expression level in Staphylococcus aureus at 6.25 uM incubated for 1 hr in absence of light irradiation; type: functional
[15] = test system: Staphylococcus aureus; assay: Downregulation of ftsA expression level in Staphylococcus aureus at 6.25 uM incubated for 1 hr in absence of light irradiation; type: functional
[16] = test system: Staphylococcus aureus; assay: Downregulation of sepF expression level in Staphylococcus aureus at 6.25 uM incubated for 1 hr in absence of light irradiation; type: functional
[17] = test system: Staphylococcus aureus; assay: Downregulation of sle1 expression level in Staphylococcus aureus at 6.25 uM incubated for 1 hr in absence of light irradiation; type: functional
[18] = test system: Staphylococcus aureus; assay: Downregulation of spoVG expression level in Staphylococcus aureus at 6.25 uM incubated for 1 hr in absence of light irradiation; type: functional
[19] = test system: Staphylococcus aureus; assay: Downregulation of ftsZ expression level in Staphylococcus aureus at 6.25 uM incubated for 1 hr in absence of light irradiation; type: functional
[20] = test system: Staphylococcus aureus; assay: Downregulation of lytH expression level in Staphylococcus aureus at 6.25 uM incubated for 1 hr in absence of light irradiation; type: functional
[21] = test system: Staphylococcus aureus; assay: Downregulation of engB expression level in Staphylococcus aureus at 6.25 uM incubated for 1 hr in absence of light irradiation; type: functional
[22] = test system: Staphylococcus aureus; assay: Downregulation of murC expression level in Staphylococcus aureus at 6.25 uM incubated for 1 hr in absence of light irradiation; type: functional
[23] = test system: Staphylococcus aureus; assay: Downregulation of femX expression level in Staphylococcus aureus at 6.25 uM incubated for 1 hr in absence of light irradiation; type: functional
[24] = test system: Staphylococcus aureus; assay: Downregulation of murB expression level in Staphylococcus aureus at 6.25 uM incubated for 1 hr in absence of light irradiation; type: functional
[25] = test system: Staphylococcus aureus; assay: Downregulation of murF expression level in Staphylococcus aureus at 6.25 uM incubated for 1 hr in absence of light irradiation; type: functional
[26] = test system: Staphylococcus aureus; assay: Downregulation of murG expression level in Staphylococcus aureus at 6.25 uM incubated for 1 hr in absence of light irradiation; type: functional
[27] = test system: Staphylococcus aureus; assay: Downregulation of glmM expression level in Staphylococcus aureus at 6.25 uM incubated for 1 hr in absence of light irradiation; type: functional
[28] = test system: Staphylococcus aureus; assay: Downregulation of uppP expression level in Staphylococcus aureus at 6.25 uM incubated for 1 hr in absence of light irradiation; type: functional
[29] = test system: Staphylococcus aureus; assay: Downregulation of murI expression level in Staphylococcus aureus at 6.25 uM incubated for 1 hr in absence of light irradiation; type: functional
[30] = test system: Staphylococcus aureus; assay: Downregulation of serS expression level in Staphylococcus aureus at 6.25 uM incubated for 1 hr in absence of light irradiation; type: functional
[31] = test system: Staphylococcus aureus; assay: Downregulation of ddl expression level in Staphylococcus aureus at 6.25 uM incubated for 1 hr in absence of light irradiation; type: functional
[32] = test system: Staphylococcus aureus; assay: Downregulation of murD expression level in Staphylococcus aureus at 6.25 uM incubated for 1 hr in absence of light irradiation; type: functional
[33] = test system: Staphylococcus aureus; assay: Downregulation of femB expression level in Staphylococcus aureus at 6.25 uM incubated for 1 hr in absence of light irradiation; type: functional
[34] = test system: Staphylococcus aureus; assay: Downregulation of alr1 expression level in Staphylococcus aureus at 6.25 uM incubated for 1 hr in absence of light irradiation; type: functional

For C#CCC[n+]1c(/C=C/c2ccc(-c3ccc(N(c4ccc(OCCC[N+](C)(C)C)cc4)c4ccc(OCCC[N+](C)(C)C)cc4)cc3)s2)sc2ccccc21.[Br-].[Br-].[Br-], the Activity [1] was “Active”, the Activity [2] was “Active” and the Activity [3] was “Active”. For the same compound, the Activity [4] was “Active”, the Activity [5] was “Active” and the Activity [6] was “Active”. For the same compound, the MIC [7] was at most 100 µM, the Activity [8] was 100% and the Activity [9] was “Active”. For the same compound, the Activity [10] was “Dose-dependent-effect”, the Activity [11] was “Active” and the inhibition [12] was “Active”. For the same compound, the inhibition [13] was “Active”, the Activity [14] was “Active” and the Activity [15] was “Active”. The Activity [16] was “Active”, the Activity [17] was “Active” and the Activity [18] was “Active”. The Activity [19] was “Active”, the Activity [20] was “Active” and the Activity [21] was “Active”. For the same compound, the Activity [22] was “Active”, the Activity [23] was “Active” and the Activity [24] was “Active”. The Activity [25] was “Active”, the Activity [26] was “Active” and the Activity [27] was “Active”. The Activity [28] was “Active”, the Activity [29] was “Active” and the Activity [30] was “Active”. The Activity [31] was “Active”, the Activity [32] was “Active” and the Activity [33] was “Active”. The Activity [34] was “Active”.
